Key:
[1] = test system: soleus muscles of Acc2-/- mutant mice; assay: [3H]palmitate oxidation in isolated soleus muscle of Acc2-/- mutant mice; type: cell-based, mouse; details: 30 min, 37° C.
Procedure: Where indicated, insulin (10 nM) or isoproterenol (3 mM) was added, and the vials were incubated at 37° C. under a humidified O2/CO2 (95/5%) atmosphere for 30 min. At the end of the incubation period, the [^3H]2O was separated from the labeled substrate and counted. To provide further evidence for the role of ACC2-synthesized malonyl-CoA as the regulator of fatty acid oxidation, fatty acid oxidation was investigated in the mouse soleus muscle, a […] muscle tissue responsive to hormonal regulation ([…]., Gamble, J., Patel, A., Kemp, […]., and Ruderman, W. B., J Biol Chem., 272:13255-13261 1997; Alam, N., and E. D. Saggerson. Biochem J., 334:233-41, 1998; […]., and […]. Proc Natl Acad Sci. USA 92, 4011-4015, 1995; […]., and […] Biol Chem. 272, 10669-10677, 1997; -Ha, J., J. K. Lee, […], and K.-H. Him. Proc Natl Acad Sci USA. 93:11466-11470, 1996; Rasmussen, B. B. and Wolfe, R. R., Ann. Rev. Natr. 19:463, 1999; and, Bressler, R. and […] Biol Chem. 236:1643-1651, 1961). […] Insulin is known to activate both ACC1 and ACC2 and, thereby, to induce fatty acid synthesis and inhibit fatty acid oxidation, respectively. […] Faseb J. 3:2250-2256, 1989; Thampy, K. G., and […]. Biol. Chem. 263, 6454-6458, 1988; […]., and […]. Biol. Chem. 265, 6330-6338, 1990; Mohamed, A. H., W. Y. Huang, W. Huang, K. V. Venkatachalam, and […] Biol Chem. 269:6859-6865. 1994; and, Hardie, D. G. Prog Lipid Res. 28:117-146, 1989). The role of ACC2 in the regulation of mitochondrial oxidation of fatty acids was further confirmed by using isoproterenol, an analog of glucagon, which produces effects opposite of those of insulin. Adding isoproterenol to wild-type soleus muscle increased palmitate oxidation by 50% (FIG. 4), raising it to nearly the same level as that found in the mutant muscle cells. […] This additional increase may be due to factors independent of malonyl-CoA ([…]. Lopez-[…]. Bai, X. Luo, and M. E. Pape. Faseb J. 3:2250-2256, 1989).

[2] = test system: soleus muscles of wild-type (Acc2+/+) mice; assay: [3H]palmitate oxidation in isolated soleus muscle of wild-type mice; type: cell-based, mouse; details: isoproterenol 3 mM, 30 min, 37° C.
Procedure: Where indicated, insulin (10 nM) or isoproterenol (3 mM) was added, and the vials were incubated at 37° C. under a humidified O2/CO2 (95/5%) atmosphere for 30 min. At the end of the incubation period, the [^3H]2O was separated from the labeled substrate and counted. To provide further evidence for the role of ACC2-synthesized malonyl-CoA as the regulator of fatty acid oxidation, fatty acid oxidation was investigated in the mouse soleus muscle, a […] muscle tissue responsive to hormonal regulation ([…]., Gamble, J., Patel, A., Kemp, […]., and Ruderman, W. B., J Biol Chem., 272:13255-13261 1997; Alam, N., and E. D. Saggerson. Biochem J., 334:233-41, 1998; […]., and […]. Proc Natl Acad Sci. USA 92, 4011-4015, 1995; […]., and […] Biol Chem. 272, 10669-10677, 1997; -Ha, J., J. K. Lee, […], and K.-H. Him. Proc Natl Acad Sci USA. 93:11466-11470, 1996; Rasmussen, B. B. and Wolfe, R. R., Ann. Rev. Natr. 19:463, 1999; and, Bressler, R. and […] Biol Chem. 236:1643-1651, 1961). […] Insulin is known to activate both ACC1 and ACC2 and, thereby, to induce fatty acid synthesis and inhibit fatty acid oxidation, respectively. […] Faseb J. 3:2250-2256, 1989; Thampy, K. G., and […]. Biol. Chem. 263, 6454-6458, 1988; […]., and […]. Biol. Chem. 265, 6330-6338, 1990; Mohamed, A. H., W. Y. Huang, W. Huang, K. V. Venkatachalam, and […] Biol Chem. 269:6859-6865. […]

ACC = details: mice treated with fatty acid synthase inhibitors; cited from earlier work

With insulin the “effect on fatty acid oxidation” value ([1]; insulin 10 nM) was “did not affect”.

For `CC(C)NCC(O)c1ccc(O)c(O)c1` (centres unmarked) [isoproterenol], the “effect on fatty acid oxidation” value ([1]; isoproterenol 3 mM) was “further increased”, the “effect on fatty acid oxidation” value ([1]; isoproterenol 3 mM, listed as Isoproterenol) was “little effect” and the “increase of fatty acid (palmitate) oxidation” value [2] was 50%.

For `CCCCCCCCCCCCCCOc1ccc(C(=O)O)o1` [5-(tetradeculoxy)-2 furoic acid], the “effect on food uptake” value (ACC) is listed as “increases food uptake”.

Reference: patent US6734337B2, “Acetyl-coenzyme A carboxylase 2 as a target in the regulation of fat burning, fat accumulation, energy homeostasis and insulin action” (Research Development Foundation, priority 2000, dated 2004)
